According to patent US10858364B2, “Imidazopyrazine inhibitors of Bruton's tyrosine kinase” (Acerta Pharma B.V., priority 2016, dated 2020):

Key:
BLK = BLK (Homo sapiens (Human), UniProt P51451); experiment: BLK Z'-LYTE kinase assay; format: biochemical; conditions: 1 h pre-incubation, Km ATP
Description: BMX, TXK, EGFR, ERBB2, ERBB4, JAK3, BLK kinase activity was measured using the Z′-LYTE assay at Thermo Fisher. A 10-point dose response (final concentration in assay ranged from 10 μM to 0.5 nM in 3-fold dilution per dilution step) was generated with 1 h incubation of the test compound with the kinase prior to initiation of the kinase reaction by the addition of ATP. ATP concentration in the assay was Km ATP for the different kinases. IC50 values are determined by curve fitting of the experimental results at Thermo Fisher.

BTK = BTK (Homo sapiens (Human), UniProt Q06187); experiment: BTK IMAP with ATP competition and variable pre-incubation; format: biochemical
Description: BTK enzyme activity with ATP competition was measured using the IMAP (immobilized metal ion affinity-based fluorescence polarization) assay. BTK enzyme (Millipore) was diluted to 16 nM, respectively in Kinase Reaction (KR) buffer (10 mM Tris-HCl, 10 mM MgCl2, 0.01% Tween-20, 0.1% NaN3, 1 mM DTT, 2 mM MnCl2, pH 7.5). Serial dilutions […] from 1 mM to 31.6 nM of test compounds were made in 100% DMSO. The dilutions in DMSO were then diluted 25-fold in KR-buffer. Final compound concentrations ranged from 10 μM to 0.316 nM. The assay is performed as follows: 5 μL/well of test compound in KR buffer (final DMSO concentration in the assay is 1%) was mixed with 5 µl/well of BTK or ITK enzyme (final concentration in the assay was 4 and 8 nM for BTK and ITK, respectively). Test compounds and kinase enzyme were pre-incubated 0, 30, or 60 min, before adding 5 μL/well of 200 nM Fluorescein labeled substrate peptide (Blk/Lyntide substrate, Molecular Devices) in KR-buffer. Final peptide substrate concentration in assay was 50 nM. The kinase assay was started by adding 5 μL/well of 20, 100, or 400 μM ATP in KR-buffer (final ATP concentration was 5, 25, or 100 μM ATP). Following incubation for 2h at room temperature the enzyme reaction was stopped by adding 40 μL/well IMAP Progressive Binding Solution (Molecular Devices), according to product instructions, using 60% lx buffer A and 40% lx buffer B with 800× diluted beads). After 60 min incubation at room temperature in the dark the FP signal was read. Fluorescence at 535 nm was measured using parallel and perpendicular filters to determine differences in rotation due to binding of the phosphorylated substrate peptide to the beads. Values were calculated as percentage of the difference in readout (AmPi) of the controls with and without ATP. IC50 values were determined by curve fitting of the experimental results using Dotmatics. […] M27 was tested in the BTK IMAP ATP competition assays with variable pre-incubation times (0, 30, and 60 minutes) and ATP concentrations (5, 25 and 100 μM). The results in Table 2 and FIG. 2 confirm that M27 is covalent inhibitors of BTK. […] Furthermore, there is loss of ATP competition following pre-incubation of BTK with M27, a result that is typical for compounds that bind covalently.

ERBB4 = ERBB4 (Homo sapiens (Human), UniProt Q15303); experiment: DiscoveRx Kd dose response, ERBB4; format: binding
Description: (§1) Kinase profiling was performed with M27 was done at DiscoveRx at a single dose of 1 μM on all available kinases (KINOMEscan). The overall kinase selectivity score is in Table 6. […] Kinases inhibited >65% at 1 μM for M27 were followed up with a dose response at DiscoveRx. The M27 had IC50 values <1 μM for almost the same set of kinases with exception of TXK, but with additional inhibition of BRK (PTK6).

LIMK1 = LIMK1 (Homo sapiens (Human), UniProt P53667); experiment: DiscoveRx Kd dose response, LIMK1; format: binding
Description: as §1

MEK5 = MEK5 (Homo sapiens (Human), UniProt Q13163); experiment: DiscoveRx Kd dose response, MEK5; format: binding
Description: as §1

TEC = TEC (Homo sapiens (Human), UniProt P42680); experiment: DiscoveRx Kd dose response, TEC; format: binding
Description: as §1

[1] = Clinical pharmacokinetics of acalabrutinib and its major metabolite; format: in vivo, human; conditions: human, in vivo; single oral dose of 100 mg acalabrutinib; read-out: median terminal elimination half-life (t½) (converted)
Source text: The compound of Formula (I) was identified as the major metabolite in plasma with a geometric mean exposure (AUC) approximately 2- to 3-fold higher than the exposure of acalabrutinib.
Acalabrutinib and the major metabolite form a covalent bond with a cysteine residue in the BTK active site, leading to inhibition of BTK enzymatic activity. Acalabrutinib binding with the cysteine residue occurs rapidly and irreversibly and provides high target occupancy at steady state.

CYP2C8 = CYP2C8 (Homo sapiens (Human), UniProt P10632); experiment: CYP inhibition, CYP2C8; format: in vitro ADME
CYP2C9 = CYP2C9 (Homo sapiens (Human), UniProt P11712); experiment: CYP inhibition, CYP2C9; format: in vitro ADME
CYP2B6 = CYP2B6 (Homo sapiens (Human), UniProt P20813); experiment: CYP inhibition, CYP2B6; format: in vitro ADME
CYP3A4 = experiment: CYP induction, CYP3A4; format: in vitro ADME

Sequence of BTK (Q06187 whole entry): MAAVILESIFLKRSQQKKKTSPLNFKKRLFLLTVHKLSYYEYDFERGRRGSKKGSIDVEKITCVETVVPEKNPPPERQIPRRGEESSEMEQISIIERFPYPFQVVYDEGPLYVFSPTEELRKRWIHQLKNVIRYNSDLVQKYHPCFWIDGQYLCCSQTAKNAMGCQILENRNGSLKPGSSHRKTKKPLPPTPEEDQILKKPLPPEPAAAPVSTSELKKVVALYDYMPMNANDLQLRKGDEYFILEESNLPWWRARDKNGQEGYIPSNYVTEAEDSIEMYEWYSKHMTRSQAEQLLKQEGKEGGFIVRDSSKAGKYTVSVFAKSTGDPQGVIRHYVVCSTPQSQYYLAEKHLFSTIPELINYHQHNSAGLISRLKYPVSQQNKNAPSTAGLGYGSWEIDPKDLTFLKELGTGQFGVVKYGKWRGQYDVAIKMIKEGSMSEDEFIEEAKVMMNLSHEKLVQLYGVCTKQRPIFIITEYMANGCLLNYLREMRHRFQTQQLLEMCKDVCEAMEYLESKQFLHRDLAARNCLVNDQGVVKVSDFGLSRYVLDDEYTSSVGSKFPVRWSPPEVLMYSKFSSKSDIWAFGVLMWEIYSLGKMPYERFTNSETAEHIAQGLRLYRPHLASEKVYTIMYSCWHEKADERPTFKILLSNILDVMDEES
Sequence of CYP2C8 (P10632 whole entry): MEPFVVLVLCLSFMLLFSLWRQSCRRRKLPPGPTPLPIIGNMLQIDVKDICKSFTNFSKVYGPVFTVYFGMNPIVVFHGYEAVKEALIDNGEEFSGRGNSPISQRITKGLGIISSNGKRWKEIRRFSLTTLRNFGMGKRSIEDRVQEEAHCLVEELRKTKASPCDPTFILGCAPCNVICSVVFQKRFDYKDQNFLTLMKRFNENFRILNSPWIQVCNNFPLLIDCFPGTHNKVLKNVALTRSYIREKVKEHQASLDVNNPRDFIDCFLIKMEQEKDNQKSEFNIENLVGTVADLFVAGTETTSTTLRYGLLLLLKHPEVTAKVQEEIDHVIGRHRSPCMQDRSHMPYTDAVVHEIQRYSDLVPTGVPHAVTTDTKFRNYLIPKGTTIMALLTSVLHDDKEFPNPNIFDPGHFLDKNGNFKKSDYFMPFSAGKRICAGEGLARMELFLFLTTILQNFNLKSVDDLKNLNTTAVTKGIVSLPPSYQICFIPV
Sequence of ERBB4 (Q15303 26-1308): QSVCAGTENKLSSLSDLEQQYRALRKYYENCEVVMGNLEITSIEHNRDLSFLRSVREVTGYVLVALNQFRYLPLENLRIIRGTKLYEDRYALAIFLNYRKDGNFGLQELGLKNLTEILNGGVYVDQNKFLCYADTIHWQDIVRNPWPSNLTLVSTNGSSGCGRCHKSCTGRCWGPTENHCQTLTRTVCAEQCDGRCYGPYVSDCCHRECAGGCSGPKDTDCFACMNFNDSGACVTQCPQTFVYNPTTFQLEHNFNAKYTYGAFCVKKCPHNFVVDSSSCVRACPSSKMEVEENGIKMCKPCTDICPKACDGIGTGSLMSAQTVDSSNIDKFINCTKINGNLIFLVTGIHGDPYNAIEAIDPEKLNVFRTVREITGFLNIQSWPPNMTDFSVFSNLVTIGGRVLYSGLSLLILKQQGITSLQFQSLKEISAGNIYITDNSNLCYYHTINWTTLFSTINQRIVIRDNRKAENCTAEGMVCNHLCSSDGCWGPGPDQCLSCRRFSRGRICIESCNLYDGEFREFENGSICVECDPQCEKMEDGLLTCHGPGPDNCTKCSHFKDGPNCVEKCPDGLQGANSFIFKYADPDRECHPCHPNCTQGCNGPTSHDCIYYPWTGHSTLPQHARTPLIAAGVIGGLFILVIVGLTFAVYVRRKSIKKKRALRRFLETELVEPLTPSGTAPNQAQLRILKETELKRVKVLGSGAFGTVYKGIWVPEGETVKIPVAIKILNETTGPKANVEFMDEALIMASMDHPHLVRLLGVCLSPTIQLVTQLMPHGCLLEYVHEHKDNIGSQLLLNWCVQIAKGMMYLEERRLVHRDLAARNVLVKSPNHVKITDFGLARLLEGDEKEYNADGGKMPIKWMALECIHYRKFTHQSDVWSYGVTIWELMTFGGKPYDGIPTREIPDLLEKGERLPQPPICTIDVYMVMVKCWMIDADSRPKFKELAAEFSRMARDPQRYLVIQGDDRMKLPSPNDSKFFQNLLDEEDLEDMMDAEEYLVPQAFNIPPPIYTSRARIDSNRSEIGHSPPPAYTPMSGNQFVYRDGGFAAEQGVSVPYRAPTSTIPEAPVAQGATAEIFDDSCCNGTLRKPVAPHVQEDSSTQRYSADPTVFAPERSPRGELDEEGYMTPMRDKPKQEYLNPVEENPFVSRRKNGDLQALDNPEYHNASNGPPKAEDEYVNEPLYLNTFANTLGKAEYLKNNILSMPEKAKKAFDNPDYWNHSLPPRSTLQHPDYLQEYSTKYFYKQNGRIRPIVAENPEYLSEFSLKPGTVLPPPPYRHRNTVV
Sequence of BLK (P51451 whole entry): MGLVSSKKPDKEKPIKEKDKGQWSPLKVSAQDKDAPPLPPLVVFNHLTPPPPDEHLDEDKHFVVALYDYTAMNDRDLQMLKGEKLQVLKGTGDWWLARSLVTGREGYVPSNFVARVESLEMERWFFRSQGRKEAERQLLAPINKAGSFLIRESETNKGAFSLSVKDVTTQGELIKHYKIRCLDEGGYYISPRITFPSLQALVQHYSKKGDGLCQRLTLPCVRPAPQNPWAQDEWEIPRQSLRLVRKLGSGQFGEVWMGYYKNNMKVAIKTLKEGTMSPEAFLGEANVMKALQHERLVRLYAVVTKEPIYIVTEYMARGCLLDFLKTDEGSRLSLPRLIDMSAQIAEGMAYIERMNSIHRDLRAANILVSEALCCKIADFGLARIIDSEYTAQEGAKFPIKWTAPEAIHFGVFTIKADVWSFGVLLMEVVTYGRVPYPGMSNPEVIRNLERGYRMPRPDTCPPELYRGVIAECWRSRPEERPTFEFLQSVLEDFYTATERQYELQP
Sequence of LIMK1 (P53667 whole entry): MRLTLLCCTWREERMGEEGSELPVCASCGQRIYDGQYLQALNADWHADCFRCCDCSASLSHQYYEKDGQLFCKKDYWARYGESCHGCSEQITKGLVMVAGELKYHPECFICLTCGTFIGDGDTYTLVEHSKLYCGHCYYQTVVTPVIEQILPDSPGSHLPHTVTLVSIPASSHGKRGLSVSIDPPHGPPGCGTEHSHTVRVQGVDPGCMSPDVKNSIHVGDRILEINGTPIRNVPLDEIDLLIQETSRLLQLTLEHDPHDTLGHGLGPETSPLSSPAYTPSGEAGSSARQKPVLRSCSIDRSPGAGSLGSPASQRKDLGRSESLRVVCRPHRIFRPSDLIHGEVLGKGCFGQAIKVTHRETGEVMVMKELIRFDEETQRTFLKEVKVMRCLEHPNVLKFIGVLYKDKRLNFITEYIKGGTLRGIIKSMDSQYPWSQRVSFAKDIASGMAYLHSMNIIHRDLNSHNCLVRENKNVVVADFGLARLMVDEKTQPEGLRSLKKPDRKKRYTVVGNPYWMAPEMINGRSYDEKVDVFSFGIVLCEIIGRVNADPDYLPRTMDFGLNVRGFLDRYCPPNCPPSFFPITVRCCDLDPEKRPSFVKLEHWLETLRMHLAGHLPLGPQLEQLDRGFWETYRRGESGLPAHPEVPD
Sequence of CYP2B6 (P20813 whole entry): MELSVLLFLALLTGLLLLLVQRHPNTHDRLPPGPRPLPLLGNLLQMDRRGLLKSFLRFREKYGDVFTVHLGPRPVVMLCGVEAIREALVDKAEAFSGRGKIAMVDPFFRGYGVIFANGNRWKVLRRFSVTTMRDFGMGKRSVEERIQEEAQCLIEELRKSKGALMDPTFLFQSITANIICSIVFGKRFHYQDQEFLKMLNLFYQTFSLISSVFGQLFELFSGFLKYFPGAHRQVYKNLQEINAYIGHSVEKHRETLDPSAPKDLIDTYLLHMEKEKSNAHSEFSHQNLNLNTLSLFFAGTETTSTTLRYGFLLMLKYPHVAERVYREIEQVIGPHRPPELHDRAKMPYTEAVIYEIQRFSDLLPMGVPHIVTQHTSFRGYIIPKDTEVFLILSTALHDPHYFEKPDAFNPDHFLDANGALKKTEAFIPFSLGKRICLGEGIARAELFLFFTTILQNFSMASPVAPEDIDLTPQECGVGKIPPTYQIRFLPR
Sequence of TEC (P42680 whole entry): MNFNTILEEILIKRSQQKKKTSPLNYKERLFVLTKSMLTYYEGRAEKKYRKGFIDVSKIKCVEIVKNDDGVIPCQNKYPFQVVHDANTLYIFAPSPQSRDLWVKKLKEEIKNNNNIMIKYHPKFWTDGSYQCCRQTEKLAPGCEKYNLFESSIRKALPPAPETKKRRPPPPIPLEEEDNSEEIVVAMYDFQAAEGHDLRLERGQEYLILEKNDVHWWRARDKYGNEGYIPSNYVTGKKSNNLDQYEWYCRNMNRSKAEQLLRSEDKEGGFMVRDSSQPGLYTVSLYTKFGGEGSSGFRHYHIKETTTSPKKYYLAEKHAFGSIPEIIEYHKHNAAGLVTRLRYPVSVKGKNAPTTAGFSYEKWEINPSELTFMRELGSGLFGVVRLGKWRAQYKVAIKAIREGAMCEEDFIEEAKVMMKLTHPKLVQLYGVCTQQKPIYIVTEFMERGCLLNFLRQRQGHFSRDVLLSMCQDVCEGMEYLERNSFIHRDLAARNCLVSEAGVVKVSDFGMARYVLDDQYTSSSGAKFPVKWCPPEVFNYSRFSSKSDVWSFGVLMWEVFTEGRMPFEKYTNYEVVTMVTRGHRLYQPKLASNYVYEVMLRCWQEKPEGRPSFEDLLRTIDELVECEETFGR

CC#CC(=O)NCCCC(=O)c1nc(-c2ccc(C(=O)Nc3ccccn3)cc2)c2c(N)nccn12 [Formula (I), 4-(8-amino-3-(4-(but-2-ynamido)butanoyl)imidazo[1,5-a]pyrazin-1-yl)-N-(pyridin-2-yl)benzamide]
IC50 (BLK): 6170 ± 3350 nM
IC50 (BTK; 5 μM ATP, 0 minute pre-incubation): 27.3 nM
IC50 (BTK; 5 μM ATP, 30 minutes pre-incubation): 12.6 nM
IC50 (BTK; 5 μM ATP, 60 minutes pre-incubation): 6.9 nM
IC50 (BTK; 25 μM ATP, 0 minute pre-incubation): 72.4 nM
IC50 (BTK; 25 μM ATP, 30 minutes pre-incubation): 18.1 nM
IC50 (BTK; 25 μM ATP, 60 minutes pre-incubation): 9.5 nM
IC50 (BTK; 100 μM ATP, 0 minute pre-incubation): 101 nM
IC50 (BTK; 100 μM ATP, 30 minutes pre-incubation): 23.7 nM
IC50 (BTK; 100 μM ATP, 60 minutes pre-incubation): 10.8 nM
Kd (ERBB4): 970 nM
Kd (LIMK1): 400 nM
Kd (MEK5): 69 nM
Kd (TEC): 40 nM
half-life [1]: 6.9 h
CYP2C8 inhibition (CYP2C8): weak inhibitor
CYP2C9 inhibition (CYP2C9): weak inhibitor
CYP2B6 inhibition (CYP2B6): does not inhibit
CYP3A4 induction (CYP3A4): weak inducer
